Results published in patent publication US20240309016A1, “MACROCYCLIC HETEROCYCLE COMPOUNDS AND USE THEREOF” (TAKEDA PHARMACEUTICAL COMPANY LIMITED, priority 2023, published 2024).

Molecular target: T1, human OX2 receptor (Homo sapiens, UniProt O43614)
T1 construct: expressed in transfected cells
T1 sequence (O43614 1-444): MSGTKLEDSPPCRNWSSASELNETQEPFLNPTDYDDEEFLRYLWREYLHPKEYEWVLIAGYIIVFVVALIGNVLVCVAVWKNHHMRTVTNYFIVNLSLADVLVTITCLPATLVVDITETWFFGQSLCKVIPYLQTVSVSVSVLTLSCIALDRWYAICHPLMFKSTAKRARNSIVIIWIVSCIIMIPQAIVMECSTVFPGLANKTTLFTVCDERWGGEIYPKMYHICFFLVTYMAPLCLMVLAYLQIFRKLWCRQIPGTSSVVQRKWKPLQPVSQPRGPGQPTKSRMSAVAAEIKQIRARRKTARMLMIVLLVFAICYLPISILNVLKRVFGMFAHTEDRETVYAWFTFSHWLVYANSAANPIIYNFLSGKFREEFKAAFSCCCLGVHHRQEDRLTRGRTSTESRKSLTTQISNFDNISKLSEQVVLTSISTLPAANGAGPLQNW
Test: Measurement of orexin type 2 receptor agonist activity (Experimental Example 2; Fluo-4 AM calcium fluorescence, FDSS μCELL)
Assay type: cell-based
Conditions: compound at 3 μM; CHO cells expressing human OX2 receptor; DMSO = 0%, 10 nM orexin A (human) = 100%
Method: In order to obtain cell clones that stably express human orexin type 2 receptor, human orexin type 2 (residues 1-444, NCBI Reference Sequence: AK314279) was constructed in a pcDNA3.1 (+) vector (Invitrogen) to express in mammalian cells. This plasmid DNA was transfected into CHO-K1 cells by electroporation, and stable clones were obtained by limiting dilution using resistance to G418 as a selection marker.
CHO cells in which human OX2 receptor was forcibly expressed were seeded at 10,000 cells/well into a 384-well black transparent bottom plate (BD falcon), and were incubated at 37° C., 5% CO2 for 1 day after incubation at room temperature for 30 minutes. After removing the cell plate medium, assay buffer containing calcium indicator A (HBSS (Thermo Fisher Scientific), 20 mM HEPES (Thermo Fisher Scientific), 0.1% BSA (Sigma-Aldrich), 2.5 μg/mL Fluo-4 AM (Dojin Kagaku), 0.08% Pluronic F127 (Dojin Kagaku), 1.25 mM probenecid (Dojin Kagaku)) was added at 30 μL/well. After incubation in a 5% CO2 incubator at 37° C. for 30 minutes, it was incubated at room temperature for another 30 minutes. Add 10 μL/well of the test compound diluted with assay buffer B (HBSS, 20 mM HEPES, 0.1% BSA), and use FDSS μCELL (Hamamatsu Photonics) to measure the fluorescence value every 1 second for 1 minute, and then every 2 seconds for 1 minute. It was measured for 1 minute and 40 seconds. The amount of fluorescence value when DMSO is added instead of the test compound is defined as 0%, and the amount of fluorescence value when orexin A (human) (Peptide Institute) with a final concentration of 10 nM is added is defined as 100%. The activity (%) of the test compound was calculated. Table 2-1, 2-2, 2-3, and 2-4 show the activity of each compound at a concentration of 3 μM.

Row | Structure (SMILES) | OX2R agonist activity (3 μM, %) [%]
1 | Cc1ccc2nc1Oc1cccc(c1)C[C@H]1[C@@H](NS(C)(=O)=O)CCN1C(=O)N(C)C2 [Example 40, N-[(15aS,16S)-2,7-dimethyl-1-oxo-2,3,15a,16,17,18-hexahydro-1H,15H-4,8-(azeno)-10,14-(metheno)pyrrolo[1,2-j][1,8,10]oxadiazacyclo-heptadecin-16-yl]methanesulfonamide] | 103
2 | CCS(=O)(=O)N[C@H]1[C@@H](F)CN2C(=O)NCc3ccc(C)c(n3)Oc3cccc(c3)C[C@@H]12 [Example 42, N-[(15aS,16R,17S)-17-fluoro-7-methyl-1-oxo-2,3,15a,16,17,18-hexahydro-1H,15H-4,8-(azeno)-14,10-(metheno)pyrrolo[1,2-j][1,8,10]oxadiazacyclo-heptadecin-16-yl]ethanesulfonamide] | 101
3 | CS(=O)(=O)N[C@H]1[C@@H](F)CN2C(=O)NCc3cc(c(Cl)cn3)Oc3cccc(c3F)C[C@@H]12 [Example 44, N-[(15aS,16R,17S)-7-chloro-17,20-difluoro-1-oxo-2,3,15a,16,17,18-hexahydro-1H,15H-4,8:14,10-di(metheno)pyrrolo[1,2-j][1,5,8,10]oxatriazacyclo-heptadecin-16-yl]methanesulfonamide] | 84
4 | CCS(=O)(=O)N[C@H]1[C@@H](F)CN2C(=O)NCc3ccc(Cl)c(n3)Oc3cccc(c3)C[C@@H]12 [Example 47, N-[(15aS,16R,17S)-7-chloro-17-fluoro-1-oxo-2,3,15a,16,17,18-hexahydro-1H,15H-4,8-(azeno)-14,10-(metheno)pyrrolo[1,2-j][1,8,10]oxadiazacyclo-heptadecin-16-yl]ethanesulfonamide] | 92
5 | CCS(=O)(=O)N[C@@H]1[C@@H]2Cc3cccc(c3F)Oc3ccc(F)c(n3)CNC(=O)N2CC1(F)F [Example 50, N-[(15aS,16R)-5,17,17,20-tetrafluoro-1-oxo-2,3,15a,16,17,18-hexahydro-1H,15H-4,8-(azeno)-14,10-(metheno)pyrrolo[1,2-j][1,8,10]oxadiazacyclo-heptadecin-16-yl]ethanesulfonamide] | 88
6 | CCS(=O)(=O)N[C@H]1[C@@H](F)CN2C(=O)NCc3ncc(C)c(n3)Oc3cccc(c3F)C[C@@H]12 [Example 55, N-[(15aS,16R,17S)-17,20-difluoro-7-methyl-1-oxo-2,3,15a,16,17,18-hexahydro-1H,15H-4,8-(azeno)-10,14-(metheno)pyrrolo[1,2-j][1,5,8,10]oxatriazacyclo-heptadecin-16-yl]ethanesulfonamide] | 107
7 | O=C1NCc2nc(c(Cl)cc2F)Oc2cccc(c2F)C[C@H]2[C@@H](NS(=O)(=O)C3CC3)C(F)(F)CN12 [Example 58, N-[(15aS,16R)-7-chloro-5,17,17,20-tetrafluoro-1-oxo-2,3,15a,16,17,18-hexahydro-1H,15H-4,8-(azeno)-14,10-(metheno)pyrrolo[1,2-j][1,8,10]oxadiazacyclo-heptadecin-16-yl]cyclopropanesulfonamide] | 106

Further lines, results first:

Row | OX2R agonist activity (3 μM, %) [%] | Structure (SMILES)
8 | 107 | CS(=O)(=O)N[C@@H]1[C@@H]2Cc3cccc(c3F)Oc3nc(ccc3C(F)F)CNC(=O)N2CC1(F)F [Example 41, N-[(15aS,16R)-7-(difluoromethyl)-17,17,20-trifluoro-1-oxo-2,3,15a,16,17,18-hexahydro-1H,15H-8,4-(azeno)-10,14-(metheno)pyrrolo[1,2-j][1,8,10]oxadiazacyclo-heptadecin-16-yl]methanesulfonamide]
9 | 101 | Cc1ccc2nc1Oc1cccc(c1F)C[C@H]1[C@@H](NS(=O)(=O)C(F)F)C(F)(F)CN1C(=O)NC2 [Example 43, 1,1-difluoro-N-[(15aS,16R)-17,17,20-trifluoro-7-methyl-1-oxo-2,3,15a,16,17,18-hexahydro-1H,15H-4,8-(azeno)-10,14-(metheno)pyrrolo[1,2-j][1,8,10]oxadiazacyclo-heptadecin-16-yl]methanesulfonamide]
10 | 105 | CCS(=O)(=O)N[C@@H]1[C@@H]2Cc3cccc(c3F)Oc3nc(ccc3C)OCC(=O)N2CC1(F)F [Example 45, N-[(15aS,16R)-17,17,20-trifluoro-7-methyl-1-oxo-1,2,15a,16,17,18-hexahydro-15H-4,8-(azeno)-14,10-(metheno)pyrrolo[1,2-d][1,12,4]dioxazacyclo-heptadecin-16-yl]ethanesulfonamide]
11 | 99 | COCS(=O)(=O)N[C@@H]1[C@@H]2Cc3cccc(c3F)Oc3nc(ccc3C)CNC(=O)N2CC1(F)F [Example 46, 1-methoxy-N-[(15aS,16R)-17,17,20-trifluoro-7-methyl-1-oxo-2,3,15a,16,17,18-hexahydro-1H,15H-4,8-(azeno)-14,10-(metheno)pyrrolo[1,2-j][1,8,10]oxadiazacyclo-heptadecin-16-yl]methanesulfonamide]
12 | 67 | CCS(=O)(=O)N[C@@H]1[C@@H]2Cc3cccc(c3F)Oc3nc(ccc3C)N(C)CC(=O)N2CC1(F)F [Example 48, N-[(15aS,16R)-17,17,20-trifluoro-3,7-dimethyl-1-oxo-2,3,15a,16,17,18-hexahydro-1H,15H-4,8-(azeno)-14,10-(metheno)pyrrolo[1,2-j][1,7,10]oxadiazacyclo-heptadecin-16-yl]ethanesulfonamide]
13 | 97 | CCS(=O)(=O)N[C@@H]1[C@@H]2Cc3cccc(c3F)Oc3nc(ccc3C)C(C)NC(=O)N2CC1(F)F (stereo partly drawn) [Example 49, N-[(15aS,16R)-17,17,20-trifluoro-3,7-dimethyl-1-oxo-2,3,15a,16,17,18-hexahydro-1H,15H-4,8-(azeno)-14,10-(metheno)pyrrolo[1,2-j][1,8,10]oxadiazacyclo-heptadecin-16-yl]ethanesulfonamide (optical isomer)]
14 | 93 | Cc1cnc2nc1Oc1cccc(c1F)C[C@H]1[C@@H](NS(C)(=O)=O)C(F)(F)CN1C(=O)C1CCN21 (stereo partly drawn) [Example 52, N-[(15aS,16R)-17,17,21-trifluoro-7-methyl-20-oxo-1,2,15a,16,17,18,20,20a-octahydro-15H-4,8-(azeno)-10,14-(metheno)azeto[1,2-g]pyrrolo[1,2-j][1,5,7,10]oxatriazacyclo-heptadecin-16-yl]methanesulfonamide (optical isomer)]
15 | 108 | CN1Cc2ccc(Cl)c(n2)Oc2cccc(c2F)C[C@H]2[C@@H](NS(C)(=O)=O)C(F)(F)CN2C1=O [Example 57, N-[(15aS,16R)-7-chloro-17,17,20-trifluoro-2-methyl-1-oxo-2,3,15a,16,17,18-hexahydro-1H,15H-4,8-(azeno)-14,10-(metheno)pyrrolo[1,2-j][1,8,10]oxadiazacyclo-heptadecin-16-yl]methanesulfonamide]
16 | 106 | Cc1cnc2nc1Oc1cccc(c1F)C[C@H]1[C@@H](NS(C)(=O)=O)C(F)(F)CN1C(=O)[C@@H]1CCCN21 [Example 59, N-[(16aS,17R,21aS)-18,18,22-trifluoro-8-methyl-21-oxo-2,3,16a,17,18,19,21,21a-octahydro-1H,16H-5,9-(azeno)-11,15-(metheno)dipyrrolo[1,2-g:1′,2′-j][1,5,7,10]oxatriazacyclo-heptadecin-17-yl]methanesulfonamide]
17 | 104 | CS(=O)(=O)N[C@@H]1[C@@H]2Cc3cccc(c3F)Oc3nc(ccc3Cl)CN(CC(F)F)C(=O)N2CC1(F)F [Example 60, N-[(15aS,16R)-7-chloro-2-(2,2-difluoroethyl)-17,17,20-trifluoro-1-oxo-2,3,15a,16,17,18-hexahydro-1H,15H-4,8-(azeno)-14,10-(metheno)pyrrolo[1,2-j][1,8,10]oxadiazacyclo-heptadecin-16-yl]methanesulfonamide]
18 | 106 | CCS(=O)(=O)N[C@@H]1[C@@H]2Cc3cccc(c3F)Oc3nc(cnc3C)CCC(=O)N2CC1(F)F [Example 61, N-[(1R,19aS)-2,2,20-trifluoro-11-methyl-5-oxo-2,3,6,7,19,19a-hexahydro-1H,5H-8,12-(azeno)-18,14-(metheno)pyrrolo[1,2-j][1,4,10]oxadiazacyclo-heptadecin-1-yl]ethanesulfonamide]
